Measured values: patent US20130184222A1, “[…] ACTIVE COMPOSITIONS AND THEIR METHODS OF USE” (AGIOS PHARMACEUTICALS, INC, priority 2010, published 2013)

Assays:
U87MG cells = assay: Cellular assay: inhibition of 2-HG production in U87MG cells (LC-MS, 48 hours); format: cell-based; details: Homo sapiens, U-87 MG, 2-HG in media by LC-MS
Description: (§1) Cells (HT1080 or U87MG) were grown in T125 flasks in DMEM containing 10% FBS, 1× penicillin/streptomycin and 500 ug/mL G418 (present in U87MG cells only). They were harvested by trypsin and seeded into 96 well white bottom plates at a density of 5000 cell/well in 100 ul/well in DMEM with 10% FBS. No cells were placed in columns 1 and 12. Cells were incubated overnight at 37° C. in 5% CO2. The next day test compounds were made up at 2× the final concentration and 100 ul were added to each cell well. The final concentration of DMSO was 0.2% and the DMSO control wells were plated in row G. The plates were then placed in the incubator for 48 hours. At 48 hours, 100 ul of media was removed from each well and analyzed by LC-MS for 2-HG concentrations. The cell plate was placed back in the incubator for another 24 hours. At 72 hours post compound addition, 10 mL/plate of Promega Cell Titer Glo reagent was thawed and mixed. The cell plate was removed from the incubator and allowed to equilibrate to room temperature. Then 100 ul of Promega Cell Titer Glo reagent was added to each well of media. The cell plate was then placed on an orbital shaker for 10 minutes and then allowed to sit at room temperature for 20 minutes. The plate was then read for luminescence with an integration time of 500 ms.

IDH1 R132H = IDH1 R132H (Homo sapiens, UniProt O75874, R132H); assay: In vitro assay for IDH1 R132H inhibitors (NADPH/aKG, resazurin detection); format: biochemical; details: Table 4B; 0.2 μg/ml IDH1 R132H, 50 minutes at room temperature; read-out: IC50, IDH1 R132H Inhibition
Chain of IDH1 R132H (O75874 whole entry R132H): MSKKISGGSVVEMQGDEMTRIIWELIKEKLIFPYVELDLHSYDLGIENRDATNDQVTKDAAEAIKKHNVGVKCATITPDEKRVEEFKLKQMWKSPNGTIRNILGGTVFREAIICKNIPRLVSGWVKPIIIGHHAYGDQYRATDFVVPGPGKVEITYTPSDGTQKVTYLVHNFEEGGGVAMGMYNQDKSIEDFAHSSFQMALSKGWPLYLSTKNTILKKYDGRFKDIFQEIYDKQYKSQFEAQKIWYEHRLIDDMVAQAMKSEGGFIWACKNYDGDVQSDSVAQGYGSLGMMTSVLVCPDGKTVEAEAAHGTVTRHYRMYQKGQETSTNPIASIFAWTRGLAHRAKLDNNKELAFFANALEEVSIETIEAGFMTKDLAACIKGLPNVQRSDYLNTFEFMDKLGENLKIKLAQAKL
Procedure, shortened: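 Buffer: 150 mM NaCl, 10 mM MgCl2, 20 mM Tris pH 7.5, 0.03% BSA. Compound was added to substrate mix (8 uM NADPH, 2 mM aKG), then enzyme mix (0.2 μg/ml IDH1 R132H), and incubated 50 min at room temperature. Remaining NADPH was read by resazurin (30 μM in detection mix) to resorufin fluorescence after 5 min, Ex544/Em590.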

HT1080 cells = assay: Cellular assay: inhibition of 2-HG production in HT1080 cells (LC-MS, 48 hours); format: cell-based; details: Homo sapiens, HT-1080, 2-HG in media by LC-MS
Description: as §1

Row | SMILES | IC50 (U87MG cells) [nM] | IC50 (IDH1 R132H) [nM] | IC50 (HT1080 cells) [nM]
1 | Cc1ccccc1C(C(=O)NC1CCCCC1)N(Cc1cccs1)C(=O)CN1Cc2cccnc2C1 (stereo not shown) [Compound 206] | 1000 to 5000 | 100 to 1000 | 1000 to 5000
2 | Cc1ccccc1C(C(=O)NC1CCCCC1)N(C(=O)CN[C@H]1CCOC1)c1cccc(F)c1 (stereo partly shown) [Compound 191] | 1000 to 5000 | 100 to 1000 | 1000 to 5000
3 | Cc1ccccc1C(C(=O)NC1CCCCC1)N(C(=O)Cn1c(C)nc2ccccc21)c1ccn(C)n1 (stereo not shown) [Compound 224] | 250 to 1000 | 100 to 1000 | 250 to 1000
4 | COC(=O)N1CCCCC1C(=O)N(c1cccc(F)c1)C(C(=O)NC1CCCCC1)c1ccccc1C (stereo not shown) [Compound 293] | ≤ 250 | ≤ 100 | 250 to 1000
5 | Cc1ccccc1C(C(=O)NC1CCCCC1)N(C(=O)COC1CCOCC1)c1cccc(F)c1 (stereo not shown) [Compound 259] | 250 to 1000 | 100 to 1000 | 250 to 1000
6 | Cc1ccccc1C(C(=O)NC1CC(F)(F)C1)N(C(=O)CNc1ncccc1F)c1cccc(F)c1 (stereo not shown) [Compound 379] | 250 to 1000 | 100 to 1000 | 250 to 1000
7 | CCC(=O)N1CCCCC1C(=O)N(c1cccc(F)c1)C(C(=O)NC1CCCCC1)c1ccccc1C (stereo not shown) [Compound 328] | 1000 to 5000 | 100 to 1000 | 1000 to 5000
8 | Cc1ccccc1C(C(=O)NC1CCCCC1)N(C(=O)Cn1ccnc1C)c1cccc(-c2ccnn2C)c1 (stereo not shown) [Compound 315] | ≤ 250 | 100 to 1000 | 1000 to 5000
9 | N#Cc1ccc(NCC(=O)N(c2cccc(F)c2)C(C(=O)NC2CCCCC2)c2ccccc2Cl)cc1 (stereo not shown) [Compound 322] | ≤ 250 | ≤ 100 | ≤ 250
10 | CC(=O)Oc1ccc(C(=O)N(c2cccc(F)c2)C(C(=O)NC2CCCCC2)c2ccccc2C)cc1 (stereo not shown) [Compound 215, Acetic acid 4-[(cyclohexylcarbamoyl-o-tolyl-methyl)-(3-fluoro-phenyl)-carbamoyl]-phenyl ester] | 250 to 1000 | 100 to 1000 | 250 to 1000
11 | Cc1ccccc1C(C(=O)NC1CCCCC1)N(Cc1cccs1)C(=O)CNc1ccc(F)cc1 (stereo not shown) [Compound 207] |  | 100 to 1000 | 1000 to 5000
12 | Cc1ccccc1C(C(=O)NC1CC2CC2C1)N(C(=O)CNc1cccnc1F)c1cccc(F)c1 (stereo not shown) [Compound 377] |  | 100 to 1000 | > 5000
13 | Cc1ccccc1C(C(=O)NC1CCCCC1)N(C(=O)COC1CCCCC1F)c1cccc(F)c1 (stereo not shown) [Compound 235] |  | 100 to 1000 | 1000 to 5000
14 | COC(=O)N(C)[C@@H](C)C(=O)N(c1cccc(F)c1)[C@H](C(=O)NC1CCCCC1)c1ccccc1C [Compound 366] | 250 to 1000 |  | 250 to 1000
15 | Cc1ccccc1C(C(=O)NC1CCCCC1)N(C(=O)COCc1ccc(F)cc1)c1cccc(F)c1 (stereo not shown) [Compound 214] |  | 100 to 1000 | > 5000
16 | Cc1ccccc1C(C(=O)NC1CCCCC1)N(C(=O)COc1ccc(F)cc1)c1cccc(F)c1 (stereo not shown) [Compound 194] |  | 100 to 1000 | 250 to 1000
17 | CCS(=O)(=O)NCC(=O)N(c1cccc(F)c1)C(C(=O)NC1CCCCC1)c1ccccc1C (stereo not shown) [Compound 367] |  | 100 to 1000 | > 5000
18 | Cc1ccccc1C(C(=O)NC1CCCCC1)N(C(=O)COc1ccccc1F)c1cccc(F)c1 (stereo not shown) [Compound 196] |  | 100 to 1000 | 250 to 1000
19 | Cc1ccccc1C(C(=O)NC1CCCCC1)N(C(=O)CNc1ccccc1F)c1cccc(F)c1 (stereo not shown) [Compound 242] |  | 100 to 1000 | 1000 to 5000
20 | Cc1ccccc1C(C(=O)NC1CCCCC1)N(C(=O)COCc1cccc(F)c1)c1cccc(F)c1 (stereo not shown) [Compound 234] |  | 100 to 1000 | 1000 to 5000
21 | Cc1ccccc1C(C(=O)NC1CCC1)N(C(=O)Cc1cccs1)c1cccc(F)c1 (stereo not shown) [Compound 178] | 250 to 1000 | 100 to 1000 | 
22 | Cc1ccccc1C(C(=O)NC1CCCCC1)N(C(=O)CNC1CCCCC1O)c1cccc(F)c1 (stereo not shown) [Compound 180] | 1000 to 5000 | 100 to 1000 | 
23 | Cc1ccccc1C(C(=O)NC1CCCCC1)N(c1cccc(F)c1)S(=O)(=O)Cc1ccccc1 (stereo not shown) [Compound 393] |  | 100 to 1000 | > 5000
24 | Cc1ccccc1C(C(=O)NC1CCCCC1)N(C(=O)CSC(=N)N)c1cccc(F)c1 (stereo not shown) [Compound 163] | > 5000 | 100 to 1000 | 
